The values that follow come from patent US9370522B2, “Heterocyclic compounds for the inhibition of PASK” (BioEnergenix, LLC, priority 2009, dated 2016).

What is called IC50 is the concentration at which inhibition is half-maximal.

One experiment has as its target T1, hPASK Kinase Domain (Homo sapiens, UniProt Q96RG2).
T1 construct: made in house; host or cells: insect cells
In words: Biochemical Assay for hPASK Activity (Kinase-Glo Luminescent Kinase Assay), kinase domain. As to the method: (§1) The assay for purified hPASK activity utilizes the Kinase-Glo Luminescent Kinase Assay (Promega), which quantifies the amount of ATP remaining in solution following kinase reaction. The assay is carried out in a 96-well plate format and is performed by adding a volume of Kinase-Glo Reagent (Promega, catalog #V3771) equal to the volume of solution in the well of a completed kinase reaction. Kinase-Glo reagent contains Luciferase and its substrate. After addition to a kinase reaction it allows to measure luminescence. The amount of ATP left in solution at the time of Kinase-Glo Plus addition is directly proportional to the luminescence that is measured in each well, and inversely correlated with kinase activity.
(§2) Purified hPASK from insect cells (0.02 μg) is added to a 50 μL reaction mix containing 40 mM Hepes (pH 7.0), 100 mM KCl, 5 mM MgCl2, 1 mM DTT and 1 ug of MBP protein. Inhibitory compounds are then added and the mixture is incubated for 10 min at 25° C. before adding 5 μL of ATP (at desired concentration). The reaction is allowed to proceed at 25° C. for 1 hour before adding 50 μL of Kinase-Glo reagent. The luminescence is measured as soon as 10 minutes after Kinase-Glo reagent is added.
(Kinase-Glo reads ATP consumption through a luciferase reaction.)

For a further experiment, the target named is T2, hPASK (Full Length) (Homo sapiens, UniProt Q96RG2).
T2 construct: made in house; host or cells: insect cells
T2 sequence (Q96RG2 whole entry): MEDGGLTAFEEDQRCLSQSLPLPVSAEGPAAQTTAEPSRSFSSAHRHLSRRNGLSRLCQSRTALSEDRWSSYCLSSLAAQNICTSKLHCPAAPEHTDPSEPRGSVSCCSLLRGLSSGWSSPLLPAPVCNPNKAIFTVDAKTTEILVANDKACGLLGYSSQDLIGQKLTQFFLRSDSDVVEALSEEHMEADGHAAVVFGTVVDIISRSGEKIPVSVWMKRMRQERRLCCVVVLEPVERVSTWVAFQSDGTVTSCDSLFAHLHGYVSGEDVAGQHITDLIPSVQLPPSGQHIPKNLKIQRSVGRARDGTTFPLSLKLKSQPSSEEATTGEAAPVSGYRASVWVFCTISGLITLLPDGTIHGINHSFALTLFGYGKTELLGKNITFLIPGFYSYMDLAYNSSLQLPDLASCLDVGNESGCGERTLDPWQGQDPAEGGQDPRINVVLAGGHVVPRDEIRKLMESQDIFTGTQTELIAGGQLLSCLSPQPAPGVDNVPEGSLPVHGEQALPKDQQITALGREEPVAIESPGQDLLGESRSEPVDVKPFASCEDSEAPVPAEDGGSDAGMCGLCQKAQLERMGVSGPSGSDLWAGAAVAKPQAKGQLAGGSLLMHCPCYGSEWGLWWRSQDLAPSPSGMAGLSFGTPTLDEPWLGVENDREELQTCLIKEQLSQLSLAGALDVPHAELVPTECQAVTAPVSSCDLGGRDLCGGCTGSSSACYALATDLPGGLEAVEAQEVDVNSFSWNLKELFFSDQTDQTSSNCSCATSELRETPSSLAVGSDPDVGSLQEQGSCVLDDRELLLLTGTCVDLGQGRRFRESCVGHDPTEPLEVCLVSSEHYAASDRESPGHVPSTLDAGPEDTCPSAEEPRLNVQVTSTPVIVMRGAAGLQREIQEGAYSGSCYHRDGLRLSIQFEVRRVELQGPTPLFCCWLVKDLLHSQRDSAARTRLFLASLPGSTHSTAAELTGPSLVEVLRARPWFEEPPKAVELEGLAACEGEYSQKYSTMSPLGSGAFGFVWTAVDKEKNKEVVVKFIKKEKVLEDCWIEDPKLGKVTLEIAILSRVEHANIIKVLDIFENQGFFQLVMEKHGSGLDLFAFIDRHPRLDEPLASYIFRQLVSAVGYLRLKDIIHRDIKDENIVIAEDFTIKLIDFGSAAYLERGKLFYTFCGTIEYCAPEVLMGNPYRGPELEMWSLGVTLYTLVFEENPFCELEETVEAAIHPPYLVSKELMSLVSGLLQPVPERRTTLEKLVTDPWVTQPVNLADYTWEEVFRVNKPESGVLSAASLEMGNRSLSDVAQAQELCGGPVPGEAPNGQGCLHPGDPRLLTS
The experiment in a line: Biochemical Assay for hPASK Activity (Kinase-Glo Luminescent Kinase Assay), full length. Particulars: purified hPASK from insect cells, MBP substrate. As to the method: as §1, §2

The target of another experiment is T3, PASK (UniProt #Q96RG2; human recombinant N-terminal GST tagged construct, residues 879-1323) (Homo sapiens, UniProt Q96RG2).
T3 construct: N-terminal GST tagged construct, residues 879-1323; GST (N); made in house; host or cells: insect cells
T3 sequence (Q96RG2 879-1323, stated change not applied): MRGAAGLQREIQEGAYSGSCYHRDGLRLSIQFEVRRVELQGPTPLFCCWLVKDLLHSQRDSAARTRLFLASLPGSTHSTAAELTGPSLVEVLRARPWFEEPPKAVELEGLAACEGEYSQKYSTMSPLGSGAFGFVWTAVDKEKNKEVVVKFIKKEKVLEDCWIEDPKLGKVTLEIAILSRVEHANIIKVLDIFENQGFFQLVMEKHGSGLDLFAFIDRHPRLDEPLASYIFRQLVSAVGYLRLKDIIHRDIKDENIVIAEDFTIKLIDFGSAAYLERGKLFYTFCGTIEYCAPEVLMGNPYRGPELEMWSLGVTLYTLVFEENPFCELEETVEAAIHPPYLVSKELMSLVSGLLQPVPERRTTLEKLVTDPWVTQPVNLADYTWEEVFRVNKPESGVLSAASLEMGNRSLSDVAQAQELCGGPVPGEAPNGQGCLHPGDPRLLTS
In words: 33P-ATP radiometric PASK kinase assay (P81 phosphocellulose, scintillation counting). Particulars: Table 2, Myelin Basic Protein 20 μM, 120 min room temperature, average of all trials, read-out: IC50 Kinase Domain. It counts as biochemical. How it is done:
Purified PASK (UniProt #Q96RG2; human recombinant N-terminal GST tagged construct, residues 879-1323) from insect cells (final concentration 5 nM) is added to freshly prepared Base Reaction Buffer containing 20 mM Hepes (pH 7.5), 10 mM MgCl2, 1 mM EGTA, 0.02% Brij35, 0.02 mg/ml BSA, 0.1 mM Na3VO4, 2 mM DTT, 1% DMSO and Myelin Basic Protein (20 μM final). Test compounds in DMSO are then added and the mixture, followed by delivery of ^33P-ATP (specific activity 0.01 μCi/μl final) to initiate the reaction. The kinase reaction is incubated for 120 min at room temperature. The entire reaction mixture is washed through onto a P81 Phosphocellulose paper and washed three times for 10 minutes in 75 mM phosphoric acid and once in methanol prior to drying and scintillation counting. When the assay was repeated for a given compound, the activity data is based on the average of all trials.

[1] abbreviates: Table 1, second part (Examples 33-59).

Molecules are shown by their SMILES.

T1 sequence (Q96RG2 999-1251 limits assumed): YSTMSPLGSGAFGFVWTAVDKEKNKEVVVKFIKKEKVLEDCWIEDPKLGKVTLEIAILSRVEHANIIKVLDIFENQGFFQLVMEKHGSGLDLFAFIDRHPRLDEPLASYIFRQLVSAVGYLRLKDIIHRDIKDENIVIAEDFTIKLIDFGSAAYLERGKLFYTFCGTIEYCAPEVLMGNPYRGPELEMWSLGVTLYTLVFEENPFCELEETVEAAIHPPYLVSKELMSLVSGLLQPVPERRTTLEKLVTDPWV

Consider `O=C(O)c1ccc2nc(-c3cccc(O)c3)c(-c3cccc(O)c3)nc2c1` [Example 1, 2,3-Di-(3-hydroxyphenyl)quinoxaline-6-carboxylic acid], for which the IC50 at hPASK Kinase Domain (Table 1, first part) was at most 10 µM; on hPASK (Full Length), at most 10 µM.

Take `O=C(O)c1ccc2nc(-c3ccccc3O)c(-c3ccccc3O)nc2c1` [Example 2, 2,3-Di-(2-hydroxyphenyl)quinoxaline-6-carboxylic acid]: the IC50 on hPASK Kinase Domain (Table 1, first part) was at most 10 µM; against hPASK (Full Length) it was at most 10 µM.

Consider `Cc1nc2cc(C(=O)O)c(O)cc2nc1-c1ccccc1` [Example 3, 7-Hydroxy-2-phenyl-3-methylquinoxaline-6-carboxylic acid], for which the IC50 against hPASK Kinase Domain (Table 1, first part) is at least 10 µM; against hPASK (Full Length), at least 10 µM.

In the case of `COc1ccc(-c2nc3ccc(C(=O)O)cc3nc2-c2ccc(OC)c(OC)c2)cc1OC` [Example 4, 2,3-Di-(3,4-dimethoxyphenyl)quinoxaline-6-carboxylic acid], the IC50 against hPASK Kinase Domain (Table 1, first part) is at least 10 µM; against hPASK (Full Length), at least 10 µM.

Consider `O=C(O)c1ccc2nc(-c3ccc(F)cc3)c(-c3ccc(F)cc3)nc2c1` [Example 5, 2,3-Di-(4-fluorophenyl)quinoxaline-6-carboxylic acid], for which the IC50 is at least 10 µM against hPASK Kinase Domain (Table 1, first part) and at most 10 µM on hPASK (Full Length).

With `Cc1ccc(-c2nc3ccc(C(=O)O)cc3nc2-c2ccc(C)cc2)cc1` [Example 7, 2,3-Di-(4-methylphenyl)quinoxaline-6-carboxylic acid], the IC50 against hPASK Kinase Domain (Table 1, first part) is at least 10 µM; at hPASK (Full Length), at most 10 µM.

As for `O=C(O)c1ccc2nc(-c3ccccc3)c(-c3ccccc3)nc2c1` [Example 8, 2,3-Diphenylquinoxaline-6-carboxylic acid], the IC50 against hPASK Kinase Domain (Table 1, first part) is at most 10 µM; against hPASK (Full Length), at most 10 µM.

On to `O=C(O)c1ccc2nc(-c3ccco3)c(-c3ccco3)nc2c1` [Example 9, 2,3-Di-(2-furyl)quinoxaline-6-carboxylic acid], for which the IC50 against hPASK Kinase Domain (Table 1, first part) was at most 10 µM; against hPASK (Full Length), at most 10 µM.

Consider `O=C(O)c1cc2nc(-c3ccc4c(c3)OCO4)c(-c3ccc4c(c3)OCO4)nc2cc1O` [Example 10, 2,3-Di-(3,4-methylenedioxyphenyl)quinoxaline-7-hydroxy-6-carboxylic acid], for which the IC50 is at most 10 µM against hPASK Kinase Domain (Table 1, first part) and at most 10 µM at hPASK (Full Length).

As to `CCOc1ccc(-c2nc3ccc(C(=O)O)cc3nc2-c2ccc(OCC)cc2)cc1` [Example 11, 2,3-Di-(4-ethoxyphenyl)quinoxaline-6-carboxylic acid], the IC50 against hPASK Kinase Domain (Table 1, first part) was at least 10 µM; against hPASK (Full Length), at least 10 µM.

Take `O=C(O)c1ccc2nc(-c3ccccc3)c(-c3ccc(Br)cc3)nc2c1` [Example 31, 3-(4-Bromophenyl)-2-phenylquinoxaline-6-carboxylic acid]: the IC50 at PASK was at most 10 µM.

As to `CCc1ccc(-c2nc3cc(C(=O)O)ccc3nc2-c2ccccc2)cc1` [Example 32, 3-(4-Ethylphenyl)-2-phenylquinoxaline-6-carboxylic acid], the IC50 at PASK was at most 10 µM.

Take `O=C(O)c1ccc2nc(-c3ccccc3)c(-c3ccc(CO)cc3)nc2c1` [Example 34, 3-(4-(Hydroxymethyl)phenyl)-2-phenylquinoxaline-6-carboxylic acid]: the IC50 on PASK was at most 10 µM.

With `O=C(O)c1ccc(-c2nc3cc(C(=O)O)ccc3nc2-c2ccccc2)cc1` [Example 35, 3-(4-Carboxyphenyl)-2-phenylquinoxaline-6-carboxylic acid], the IC50 on PASK was at least 10 µM.

As to `O=C(O)c1ccc2nc(-c3ccccc3)c(-c3ccc(OC(F)(F)F)cc3)nc2c1` [Example 36, 2-Phenyl-3-(4-(trifluoromethoxy)phenyl)quinoxaline-6-carboxylic acid], the IC50 at PASK is at most 10 µM.

Consider `O=C(O)c1ccc2nc(-c3ccccc3)c(-c3cccc(OC(F)(F)F)c3)nc2c1` [Example 37, 2-Phenyl-3-(3-(trifluoromethoxy)phenyl)quinoxaline-6-carboxylic acid], for which the IC50 on PASK is at most 10 µM.

As for `O=C(O)c1ccc2nc(-c3ccccc3)c(-c3cccc(F)c3)nc2c1` [Example 38, 3-(3-Fluorophenyl)-2-phenylquinoxaline-6-carboxylic acid], the IC50 at PASK was at most 10 µM.

For the compound `Cc1ccccc1-c1nc2cc(C(=O)O)ccc2nc1-c1ccccc1` [Example 39, 2-Phenyl-3-o-tolylquinoxaline-6-carboxylic acid], the IC50 at PASK is at most 10 µM.

Consider `Cc1cccc(-c2nc3cc(C(=O)O)ccc3nc2-c2ccccc2)c1` [Example 40, 2-Phenyl-3-m-tolylquinoxaline-6-carboxylic acid], for which, on PASK, the IC50 was at most 10 µM.

`O=C(O)c1ccc2nc(-c3ccccc3)c(-c3ccc([N+](=O)[O-])cc3)nc2c1` [Example 41, 3-(4-Nitrophenyl)-2-phenylquinoxaline-6-carboxylic acid]: the IC50 on PASK was at most 10 µM.

As to `O=C(O)c1ccc2nc(-c3ccccc3)c(-c3ccoc3)nc2c1` [Example 42, 3-(Furan-3-yl)-2-phenylquinoxaline-6-carboxylic acid], at PASK, the IC50 was at most 10 µM.

Take `O=C(O)c1ccc2nc(-c3ccccc3)c(-c3ccsc3)nc2c1` [Example 43, 2-Phenyl-3-(thiophen-3-yl)quinoxaline-6-carboxylic acid]: the IC50 on PASK was at most 10 µM.

Turning to `O=C(O)c1ccc2nc(-c3ccccc3)c(-c3ccc(O)cc3)nc2c1` [Example 44, 3-(4-Hydroxyphenyl)-2-phenylquinoxaline-6-carboxylic acid], at PASK, the IC50 was at most 10 µM.

Take `COc1ccc(-c2nc3cc(C(=O)O)ccc3nc2-c2ccccc2)c(OC)c1` [Example 45, 3-(2,4-Dimethoxyphenyl)-2-phenylquinoxaline-6-carboxylic acid]: the IC50 on PASK was at most 10 µM.

With `O=C(O)c1ccc2nc(-c3ccccc3)c(-c3cccc(O)c3)nc2c1` [Example 46, 3-(3-Hydroxyphenyl)-2-phenylquinoxaline-6-carboxylic acid], the IC50 at PASK was at most 10 µM.

On to `O=C(O)c1ccc2nc(-c3ccccc3)c(-c3ccc(-c4ccccc4)cc3)nc2c1` [Example 47, 2-Phenyl-3-(4-phenyl-phenyl)quinoxaline-6-carboxylic acid], for which the IC50 on PASK is at most 10 µM.

Regarding `CCc1nc2cc(C(=O)O)ccc2nc1-c1ccccc1` [Example 48, 3-Ethyl-2-phenylquinoxaline-6-carboxylic acid], on PASK, the IC50 was at least 10 µM.

Compound `O=C(O)c1cccc(-c2nc3cc(C(=O)O)ccc3nc2-c2ccccc2)c1` [Example 50, 3-(3-Carboxyphenyl)-2-phenylquinoxaline-6-carboxylic acid] yielded an IC50 against hPASK Kinase Domain (setting [1]) of at most 10 µM.

Regarding `CN(c1ccc(-c2nc3cc(C(=O)O)ccc3nc2-c2ccccc2)cc1)S(C)(=O)=O` [Example 51, 3-(4-(N-Methylmethylsulfonamido)phenyl)-2-phenylquinoxaline-6-carboxylic acid], the IC50 against hPASK Kinase Domain (setting [1]) is at most 10 µM.

Regarding `COc1ccc(-c2nc3ccc(S(N)(=O)=O)cc3nc2-c2ccc(OC)cc2)cc1` [Example 53, 2,3-Bis(4-methoxyphenyl)quinoxaline-6-sulfonamide], the IC50 on hPASK Kinase Domain (setting [1]) is at most 10 µM.

At hPASK Kinase Domain (setting [1]), `CNS(=O)(=O)c1ccc2nc(-c3ccc(OC)cc3)c(-c3ccc(OC)cc3)nc2c1` [Example 54, 2,3-Bis(4-methoxyphenyl)-N-methylquinoxaline-6-sulfonamide] yielded an IC50 of at least 10 µM.

On hPASK Kinase Domain (setting [1]), `COc1ccc(-c2nc3ccc(S(=O)(=O)N4CCOCC4)cc3nc2-c2ccc(OC)cc2)cc1` [Example 55, 2,3-Bis(4-methoxyphenyl)-6-(morpholinosulfonyl)quinoxaline] had a concentration for half-maximal inhibition (IC50) of at most 10 µM.

`COc1ccc(-c2nc3ccc(/C=C/C(=O)O)cc3nc2-c2ccc(OC)cc2)cc1` [Example 56, (E)-3-(2,3-bis(4-methoxyphenyl)quinoxalin-6-yl)acrylic acid] returned an IC50 on hPASK Kinase Domain (setting [1]) of at least 10 µM.

`COc1ccc(-c2nc3cccc(C(=O)O)c3nc2-c2ccc(OC)cc2)cc1` [Example 58, 2,3-Bis(4-methoxyphenyl)quinoxaline-5-carboxylic acid]: the IC50 on hPASK Kinase Domain (setting [1]) is at most 10 µM.

`CCc1ccc(-c2nc3ccc(C(=O)NOC)cc3nc2-c2ccc(CC)cc2)cc1` [Example 59, 2,3-Bis(4-ethylphenyl)-N-methoxyquinoxaline-6-carboxamide] returned an IC50 at hPASK Kinase Domain (setting [1]) of at most 10 µM.
